Results reported in US20120027720A1, “PEPTIDE CONJUGATES” (priority 2008, published 2012).
*1 amine or outer side, *2 acyl side, *3 side chain or, on linkers, in order; H or OH if unused. Where a SMILES comes first, the peptide text is derived from it. Where no end group is shown, it is not given here. [ ]: non-standard residue; d: D form. Cys(StBu) = L-S-tert-butylthio-cysteine, CC(C)(C)SSC[C@H](N[*:1])C(=O)[*:2]; Phe(4-NO2) = N[C@@H](Cc1ccc([N+](=O)[O-])cc1)C(=O)O; Phe(4-CN) = N#Cc1ccc(C[C@H](N)C(=O)O)cc1; Phe(3-Me) = Cc1cccc(C[C@H](N)C(=O)O)c1; Met(O) = CS(=O)CC[C@H](N)C(=O)O; Tic = O=C(O)[C@@H]1Cc2ccccc2CN1; Cha = N[C@@H](CC1CCCCC1)C(=O)O; Cit = NC(=O)NCCC[C@H](N)C(=O)O; AllylGly = C=CC[C@H](N)C(=O)O; Tle = CC(C)(C)[C@H](N)C(=O)O; hSer = N[C@@H](CCO)C(=O)O; Nle = CCCC[C@H](N)C(=O)O; Dap = NC[C@H](N)C(=O)O

Legend:
CaCo2 monolayers [1] = assay: Trans Epithelial Electric Resistance (TEER) across cell monolayer; assay type: cell-based; design: key to Reduced TEER: + indicates an enhancement of the permeability of the tight junctions were observed; − indicates no enhancement of permeability was observed; details: for Reduced TEER: Caco-2 monolayer
Excerpt: (§1) Agonists of tight junctions can be identified by their ability to enhance the flux of compounds (e.g. ions, Lucifer Yellow) through a cell monolayer that comprises tight junctions; or by their ability to reduce TEER across a cell monolayer that comprises tight junctions. Treatment of CaCo2 monolayers with peptide FCIGRL (SEQ ID NO: 1) led to a 51-fold enhancement of Lucifer Yellow permeability through CaCo2 monolayers compared to vehicle alone. Treatment of CaCo2 monolayers with peptide FCIGRL led to a 16-fold decrease in TEER across CaCo2 monolayers compared to vehicle alone.
(§2) Determination of TEER and Lucifer Yellow Flux
(§3) Prepare Modified Hank's Balanced Salt Solution (MHBSS) by obtaining 1 L bottle of HBSS removing 10 ml of HBSS and replacing it with 10 ml HEPES buffer pH 7.0. Adjust pH to 7.4±0.1 using concentrated NaOH (10N).
(§4) Remove Caco-2 cells from incubator, grown on 12-well, […], polycarbonate Transwell® filters (Corning) and record passage#, date cells seeded and age in days.
(§5) Aspirate cell culture medium from both the apical (AP) and basolateral (BL) compartments, replacing with 0.5 ml and 1.5 ml of MHBSS, respectively. Incubate cells at 37° C. for 30 minutes.
Using the MilliCell®-ERS instrument (Millipore), measure and record the transepithelial electrical resistance (TEER) across each filter and record.
(§6) Aspirate solution from the apical compartment of each filter (n=3 per condition) and replace with 0.5 ml of control and test solutions containing Lucifer Yellow and test compound if appropriate.
(§7) Place all plates into incubator set at 37° C. (±0.2), 50 RPM (±5) for a total of 180 minutes.
At t=30, 60, 120 and 180 minutes, measure and record the transepithelial electrical resistance (TEER) across each filter using the MilliCell-ERS instrument.
(§8) Cells: Caco-2 cells passage 40-60 grown on Transwell® plates for 21-28 days
(§9) Culture Medium: DMEM supplemented with 10% fetal bovine serum, 1% NEAA, 1% Penn/Strep
(§10) Buffers: Hank's Balanced Salt Solution (HBSS) without calcium and magnesium
(§11) Flasks: 100×20 mm Tissue culture dish Falcon.
(§12) Plates: 12 well polycarbonate Transwell® filters; 0.3 uM pore size

CaCo2 monolayers [2] = assay: Epithelial flux of Lucifer Yellow through cell monolayer; assay type: cell-based; design: key to Enhanced LY permeability: + indicates an enhancement of the permeability of the tight junctions were observed; − indicates no enhancement of permeability was observed; details: for Enhanced LY permeability: Lucifer Yellow flux, Caco-2 monolayer
Excerpt: as §1, §2, §3, §4, §5, §6, §7
At t=60, 120 and 180 minutes remove 100 μl from each basolateral compartment and place it in a 96-well plate for Lucifer Yellow analysis, replace with 100 μl of MHBSS.
Make a Lucifer Yellow standard curve with the following dilutions (7500 μM, 3750 μM, 750 μM, 375 μM, 75 μM, 37.5 μM, 7.5 μM, 3.75 μM, 0.75 μM) and pipette […] of each into a 96-well plate except for the first three standards mentioned above which require a 1:10 dilutions prior to transferring to the 96-well plate.
Harvest the remaining start solutions and what is left in each apical compartment into 1.5 ml vials. Freeze at −20° C. for future analysis.
Analyze each 96-well plate in a Tecan Spectra Fluor Plus using Magellan at 485 and 535 nm.
as §8, §9, §10, §11, §12

125 (FLIGRL-NH2; also: peptide conjugate) [compound 125]
Reduced TEER (CaCo2 monolayers [1]): +
Enhanced LY permeability (CaCo2 monolayers [2]): +

203 (F[AllylGly]PGRL-NH2; N-terminus assumed; SMILES C=CC[C@H](NC(=O)[C@@H](N)Cc1ccccc1)C(=O)N1CCC[C@H]1C(=O)NCC(=O)N[C@@H](CCCNC(=N)N)C(=O)N[C@@H](CC(C)C)C(N)=O) [compound 203]
Reduced TEER (CaCo2 monolayers [1]): −
Enhanced LY permeability (CaCo2 monolayers [2]): −

78 (Ac-ACIGRA; not fully specified; printed as Ac-Ala-Cys-Ile-Gly-Arg-Ala) [compound 78]
Reduced TEER (CaCo2 monolayers [1]): −
Enhanced LY permeability (CaCo2 monolayers [2]): +

200 (P[AllylGly]IGRL-NH2; N-terminus assumed; SMILES C=CC[C@H](NC(=O)[C@@H]1CCCN1)C(=O)N[C@H](C(=O)NCC(=O)N[C@@H](CCCNC(=N)N)C(=O)N[C@@H](CC(C)C)C(N)=O)[C@@H](C)CC) [compound 200]
Reduced TEER (CaCo2 monolayers [1]): −
Enhanced LY permeability (CaCo2 monolayers [2]): −

153 (F[Cys(StBu)]IGRL; also: peptide conjugate, Xaa: 'may be' L-S-tert-butylthio-cysteine) [compound 153]
Reduced TEER (CaCo2 monolayers [1]): −
Enhanced LY permeability (CaCo2 monolayers [2]): −

CC[C@H](C)[C@H](NC(=O)[C@H](CS)NC(=O)[C@@H](N)Cc1ccccc1)C(=O)NCC(=O)N[C@@H](CCCNC(=N)N)C(=O)N[C@@H](CC(C)C)C(=O)O [SEQ ID NO: 1, Phe-Cys-Ile-Gly-Arg-Leu] (H-FCIGRL-OH; N-terminus and C-terminus assumed)
decrease in TEER across CaCo2 monolayers (CaCo2 monolayers [1]; compared to vehicle alone): 16 fold
enhancement of Lucifer Yellow permeability through CaCo2 monolayers (CaCo2 monolayers [2]; compared to vehicle alone): 51 fold

119 (FFIGRL; also: peptide conjugate) [compound 119]
Reduced TEER (CaCo2 monolayers [1]): +
Enhanced LY permeability (CaCo2 monolayers [2]): −

77 (Ac-ACIGRS; not fully specified; printed as Ac-Ala-Cys-Ile-Gly-Arg-Ser) [compound 77]
Reduced TEER (CaCo2 monolayers [1]): −

147 (H-F[Nle]IGRL-OH; not fully specified; printed as H-Phe-Nle-Ile-Gly-Arg-Leu-OH; also: peptide conjugate, Xaa: 'may be' L-norleucine) [compound 147]
Reduced TEER (CaCo2 monolayers [1]): −
Enhanced LY permeability (CaCo2 monolayers [2]): −

206 (F[AllylGly]LGRL-NH2; N-terminus assumed; SMILES C=CC[C@H](NC(=O)[C@@H](N)Cc1ccccc1)C(=O)N[C@@H](CC(C)C)C(=O)NCC(=O)N[C@@H](CCCNC(=N)N)C(=O)N[C@@H](CC(C)C)C(N)=O) [compound 206]
Reduced TEER (CaCo2 monolayers [1]): +
Enhanced LY permeability (CaCo2 monolayers [2]): +

174 ([Phe(3-Me)]FIGRL; not fully specified; also: peptide conjugate) [compound 174]
Reduced TEER (CaCo2 monolayers [1]): −
Enhanced LY permeability (CaCo2 monolayers [2]): −

120 (FPIGRL; also: peptide conjugate) [compound 120]
Reduced TEER (CaCo2 monolayers [1]): −
Enhanced LY permeability (CaCo2 monolayers [2]): −

165 (F[dL]IGRL-NH2; also: peptide conjugate) [compound 165]
Reduced TEER (CaCo2 monolayers [1]): −
Enhanced LY permeability (CaCo2 monolayers [2]): −

27 (LRGI[dC]F; not fully specified; printed as Leu-Arg-Gly-Ile-D-Cys-Phe) [compound 27]
Reduced TEER (CaCo2 monolayers [1]): −
Enhanced LY permeability (CaCo2 monolayers [2]): −

208 (F[AllylGly]FGRL-NH2; N-terminus assumed; SMILES C=CC[C@H](NC(=O)[C@@H](N)Cc1ccccc1)C(=O)N[C@@H](Cc1ccccc1)C(=O)NCC(=O)N[C@@H](CCCNC(=N)N)C(=O)N[C@@H](CC(C)C)C(N)=O) [compound 208]
Reduced TEER (CaCo2 monolayers [1]): +
Enhanced LY permeability (CaCo2 monolayers [2]): +

160 (F[Dap]IGRL; not fully specified; printed as Phe-Dpr-Ile-Gly-Arg-Leu; also: peptide conjugate) [compound 160]
Reduced TEER (CaCo2 monolayers [1]): +
Enhanced LY permeability (CaCo2 monolayers [2]): +

169 (Ac-F[hSer]IGR-NH2; also: peptide conjugate) [compound 169]
Reduced TEER (CaCo2 monolayers [1]): −
Enhanced LY permeability (CaCo2 monolayers [2]): −

97 (H-FCIGR[Tle]-OH; SMILES CC[C@H](C)[C@H](NC(=O)[C@H](CS)NC(=O)[C@@H](N)Cc1ccccc1)C(=O)NCC(=O)N[C@@H](CCCNC(=N)N)C(=O)N[C@H](C(=O)O)C(C)(C)C) [compound 97]
Reduced TEER (CaCo2 monolayers [1]): +
Enhanced LY permeability (CaCo2 monolayers [2]): +

171 (Ac-F[hSer]IGRL-NH2; also: peptide conjugate) [compound 171]
Reduced TEER (CaCo2 monolayers [1]): −
Enhanced LY permeability (CaCo2 monolayers [2]): −

155 (F[dV]IGRL-OH; also: peptide conjugate) [compound 155]
Reduced TEER (CaCo2 monolayers [1]): −
Enhanced LY permeability (CaCo2 monolayers [2]): −

191 (E[AllylGly]IGRL-NH2; N-terminus assumed; SMILES C=CC[C@H](NC(=O)[C@@H](N)CCC(=O)O)C(=O)N[C@H](C(=O)NCC(=O)N[C@@H](CCCNC(=N)N)C(=O)N[C@@H](CC(C)C)C(N)=O)[C@@H](C)CC) [compound 191]
Reduced TEER (CaCo2 monolayers [1]): −
Enhanced LY permeability (CaCo2 monolayers [2]): −

130 (FEIGRL; also: peptide conjugate) [compound 130]
Reduced TEER (CaCo2 monolayers [1]): −
Enhanced LY permeability (CaCo2 monolayers [2]): −

39 ([dL][dR]GI[dC]F; not fully specified) [compound 39]
Reduced TEER (CaCo2 monolayers [1]): −
Enhanced LY permeability (CaCo2 monolayers [2]): −

80 (SLIGRL-NH2; not fully specified; printed as Ser-Leu-Ile-Gly-Arg-Leu-NH2) [compound 80]
Reduced TEER (CaCo2 monolayers [1]): +
Enhanced LY permeability (CaCo2 monolayers [2]): +

194 (G[AllylGly]IGRL-NH2; N-terminus assumed; SMILES C=CC[C@H](NC(=O)CN)C(=O)N[C@H](C(=O)NCC(=O)N[C@@H](CCCNC(=N)N)C(=O)N[C@@H](CC(C)C)C(N)=O)[C@@H](C)CC) [compound 194]
Reduced TEER (CaCo2 monolayers [1]): −
Enhanced LY permeability (CaCo2 monolayers [2]): −

156 (F[Cha]IGRL-OH; also: peptide conjugate) [compound 156]
Reduced TEER (CaCo2 monolayers [1]): −
Enhanced LY permeability (CaCo2 monolayers [2]): −

173 ([Phe(4-CN)]FIGRL; also: peptide conjugate, Xaa: 'may be' L-4-cyano-phenylalanine) [compound 173]
Reduced TEER (CaCo2 monolayers [1]): −
Enhanced LY permeability (CaCo2 monolayers [2]): −

28 (LRGIC[dF]; not fully specified; printed as Leu-Arg-Gly-Ile-Cys-D-Phe) [compound 28]
Reduced TEER (CaCo2 monolayers [1]): −
Enhanced LY permeability (CaCo2 monolayers [2]): −

186 (M[AllylGly]IGRL-NH2; N-terminus assumed; SMILES C=CC[C@H](NC(=O)[C@@H](N)CCSC)C(=O)N[C@H](C(=O)NCC(=O)N[C@@H](CCCNC(=N)N)C(=O)N[C@@H](CC(C)C)C(N)=O)[C@@H](C)CC) [compound 186]
Reduced TEER (CaCo2 monolayers [1]): −
Enhanced LY permeability (CaCo2 monolayers [2]): −

150 (Ac-F[hSer]IGRF; also: peptide conjugate) [compound 150]
Reduced TEER (CaCo2 monolayers [1]): +
Enhanced LY permeability (CaCo2 monolayers [2]): +

104 (FCIG[Cit]L) [compound 104]
Reduced TEER (CaCo2 monolayers [1]): −

143 (H-F[Met(O)]IGRL-OH; not fully specified; also: peptide conjugate, Xaa: 'may be' L-methionine-sulfoxide) [compound 143]
Reduced TEER (CaCo2 monolayers [1]): −
Enhanced LY permeability (CaCo2 monolayers [2]): −

51 (H-[dA]CIGRG-OH; not fully specified) [compound 51]
Reduced TEER (CaCo2 monolayers [1]): +
Enhanced LY permeability (CaCo2 monolayers [2]): +

109 ([Tic]CIGRL) [compound 109]
Reduced TEER (CaCo2 monolayers [1]): −

105 ([Phe(4-NO2)]CIGRL) [compound 105]
Reduced TEER (CaCo2 monolayers [1]): −

69 (H-FCIGRLC-OH; not fully specified; cysteine pairing not given here) [compound 69]
Reduced TEER (CaCo2 monolayers [1]): −

141 (H-F[hSer]IGRL-OH; SMILES CC[C@H](C)[C@H](NC(=O)[C@H](CCO)NC(=O)[C@@H](N)Cc1ccccc1)C(=O)NCC(=O)N[C@@H](CCCNC(=N)N)C(=O)N[C@@H](CC(C)C)C(=O)O) [compound 141]
Enhanced LY permeability (CaCo2 monolayers [2]): +
